Tests used:
Rheb = Rheb (Homo sapiens (Human), UniProt Q15382); assay: Affinity Selection Mass Spectrometry (ASMS); format: binding; conditions: affinity (R3/R0) in Affinity Selection Mass Spectrometry assay
How it was run: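 Affinity selection used 2 μM compound with 60 μM Rheb and 180 μM GDP for 30 min at room temperature. After 10 kDa ultrafiltration washes, protein was denatured in MeCN and bound compound quantified by C18 UPLC with Q-TOF MS, against a no-protein control.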

[1] = target: HA-GST-Rheb (GTP-γ-S loaded) activating mTORC1 (Homo sapiens (Human), UniProt Q15382); assay: Rheb-dependent in vitro kinase assay (Rheb-IVK; LanthaScreen or Western readout); format: biochemical; conditions: Rheb-dependent in vitro kinase assay; read-out: IVK IC50
Chain of HA-GST-Rheb (GTP-γ-S loaded) activating mTORC1 (Q15382 1-181): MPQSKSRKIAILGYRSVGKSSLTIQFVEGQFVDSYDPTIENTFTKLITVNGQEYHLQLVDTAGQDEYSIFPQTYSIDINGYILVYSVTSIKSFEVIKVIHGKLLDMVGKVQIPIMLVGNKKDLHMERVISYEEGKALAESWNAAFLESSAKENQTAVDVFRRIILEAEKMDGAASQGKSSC

T389pS6K1 in MCF-7 cells = assay: Cell-based AlphaLISA assay, pS6K1 (Thr389); conditions: Homo sapiens, MCF7

Chain of Rheb (Q15382 1-169 limits assumed): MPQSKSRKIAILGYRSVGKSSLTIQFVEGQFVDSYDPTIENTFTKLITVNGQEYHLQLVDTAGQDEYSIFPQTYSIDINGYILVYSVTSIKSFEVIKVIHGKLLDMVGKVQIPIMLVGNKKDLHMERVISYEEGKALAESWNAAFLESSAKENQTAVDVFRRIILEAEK

Row | SMILES | IC50 [1] | IC50 (T389pS6K1 in MCF-7 cells) | ASMS (R3/R0) (Rheb)
1 | CN1CCC(CCNC(=O)c2cc3c(Sc4ccc(Cl)cc4)cc(Cl)cc3[nH]2)CC1 [I-142, 6-chloro-4-(4-chlorophenylthio)-N-(2-(1-methylpiperidin-4-yl)ethyl)-1H-indole-2-carboxamide] | < 10 µM | < 10 µM | A (an affinity (R3/R0)>100%)
2 | O=C(O)c1nc2c(OCC3CCCCC3)c(Cl)c(Cl)cc2[nH]1 [I-342, 5,6-dichloro-4-(cyclohexylmethoxy)-1H-benzo[d]imidazole-2-carboxylic acid] | 10 to 100 µM |  | B (an affinity (R3/R0) between 100% and 20%)
3 | Clc1ccc(Oc2cccc3[nH]ccc23)cc1 [I-283, 4-(4-chlorophenoxy)-1H-indole] | 100 to 300 µM |  | C (an affinity (R3/R0)<20%)
4 | OCc1nc2cc(OCc3ccc(Cl)cc3)c(Cl)cc2[nH]1 [I-486, (6-chloro-5-(4-chlorobenzyloxy)-1H-benzo[d]imidazol-2-yl)methanol] | > 100 µM |  | A (an affinity (R3/R0)>100%)
5 | O=C(O)c1nc2c(OCc3ccc(Cl)cc3)c(Cl)c(Cl)cc2[nH]1 [I-333] | 10 to 100 µM |  | A (an affinity (R3/R0)>100%)
6 | CN(C)C(=O)c1ccc(Cn2c(C(=O)O)cc3c(Cl)nc(Sc4ccc(Cl)c(Cl)c4)cc32)cc1 [I-4, 4-chloro-6-(3,4-dichlorophenylthio)-1-(4-(dimethylcarbamoyl)benzyl)-1H-pyrrolo[3,2-c]pyridine-2-carboxylic acid] | 10 to 100 µM |  | B (an affinity (R3/R0) between 100% and 20%)
7 | CN(C)C(=O)c1ccc(Cn2c(C(=O)O)cc3c(Br)cc(SC4CCOCC4)cc32)cc1 [I-12, 4-bromo-1-(4-(dimethylcarbamoyl)benzyl)-6-(tetrahydro-2H-pyran-4-ylthio)-1H-indole-2-carboxylic acid] | 10 to 100 µM |  | C (an affinity (R3/R0)<20%)
8 | O=C(O)c1cc2c(-c3cc(Cl)cc(Cl)c3)cc(Cl)cc2[nH]1 [I-49, 6-chloro-4-(3,5-dichlorophenyl)-1H-indole-2-carboxylic acid] | < 10 µM |  | B (an affinity (R3/R0) between 100% and 20%)
9 | O=C(O)c1cc2c(Sc3ccc(Cl)cc3)cc(Cl)c(Cl)c2[nH]1 [I-73, 6,7-dichloro-4-(4-chlorophenylthio)-1H-indole-2-carboxylic acid] | < 10 µM |  | A (an affinity (R3/R0)>100%)
10 | Clc1ccc2[nH]ccc2c1Oc1ccccc1 [I-257, 5-chloro-4-phenoxy-1H-indole] | 10 to 100 µM |  | C (an affinity (R3/R0)<20%)

The next lines start with results.

Row | IC50 [1] | IC50 (T389pS6K1 in MCF-7 cells) | SMILES | ASMS (R3/R0) (Rheb)
11 | < 10 µM | < 10 µM | CN1CCC(CNC(=O)c2cc3c(Sc4ccc(Cl)cc4Cl)cc(Cl)cc3[nH]2)CC1 [I-120, 6-chloro-4-(2,4-dichlorophenylthio)-N-((1-methylpiperidin-4-yl)methyl)-1H-indole-2-carboxamide] | B (an affinity (R3/R0) between 100% and 20%)
12 | < 10 µM | < 10 µM | CN1CCC(NC(=O)c2cc3c(Sc4ccc(Cl)cc4)cc(Cl)cc3[nH]2)C1 (centres unmarked) [I-79, 6-chloro-4-(4-chlorophenylthio)-N-(1-methylpyrrolidin-3-yl)-1H-indole-2-carboxamide] | B (an affinity (R3/R0) between 100% and 20%)
13 | > 100 µM |  | COc1ccc(Sc2cc(Cl)cc3[nH]c(CO)cc23)cc1OC [I-135] | B (an affinity (R3/R0) between 100% and 20%)
14 | > 100 µM |  | CN1CCCN(C(=O)c2cc3c(Sc4ccc(Cl)cc4)cc(Cl)cc3[nH]2)CC1 [I-83] | B (an affinity (R3/R0) between 100% and 20%)
15 | 10 to 100 µM |  | OCc1cc2c(Sc3cccc4cccnc34)cc(Cl)cc2[nH]1 [I-74, (6-chloro-4-(quinolin-8-ylthio)-1H-indol-2-yl)methanol] | B (an affinity (R3/R0) between 100% and 20%)
16 | 10 to 100 µM |  | CC(O)c1cc2c(Oc3ccccc3)cc(Cl)cc2[nH]1 (centres unmarked) [I-186, 1-(6-Chloro-4-phenoxy-1H-indol-2-yl)ethanol] | B (an affinity (R3/R0) between 100% and 20%)
